Converted amounts (≈) assume the structure as drawn. One block for each molecule: values may come before it.
What was measured:
Experiment in all cases: ≥ marks a high value that may be exact or a test limit, other limits are often not marked, values filed in µg/mL are converted to µM
Cryptococcus neoformans = test system: Cryptococcus neoformans
Bacillus subtilis = test system: Bacillus subtilis
Serratia sp. = test system: Serratia sp.
Escherichia coli = test system: Escherichia coli
Salmonella typhimurium = test system: Salmonella typhimurium
Staphylococcus aureus = test system: Staphylococcus aureus
Saccharomyces cerevisiae = test system: Saccharomyces cerevisiae
Pseudomonas putida = test system: Pseudomonas putida
Streptococcus mutans = test system: Streptococcus mutans
Candida albicans = test system: Candida albicans
Micrococcus luteus ML36 = test system: Micrococcus luteus ML36
Escherichia coli SC9251 = test system: Escherichia coli SC9251
Escherichia coli IH3080 = test system: Escherichia coli IH3080
Escherichia coli SC9252 = test system: Escherichia coli SC9252
Escherichia coli SC9253 = test system: Escherichia coli SC9253
Escherichia coli SM101 = test system: Escherichia coli SM101
[1] = test system: Staphylococcus aureus ATCC 25923
[2] = test system: Escherichia coli ATCC 25922
Micrococcus luteus = test system: Micrococcus luteus
[3] = test system: Pseudomonas aeruginosa ATCC 15692
[4] = test system: Cryptococcus neoformans IP960-67
[5] = test system: Trichophyton simii IP1063-74
[6] = test system: Candida albicans IP884-65
[7] = test system: Aeromonas caviae IP67-16T
[8] = test system: Nocardia brasiliensis IP16-80
[9] = test system: Saccharomyces cerevisiae IP118079
[10] = test system: Aspergillus niger IP218-53
[11] = test system: Enterococcus faecalis IP103214
[12] = test system: Staphylococcus aureus IP76-25
Escherichia coli IP76-24 = test system: Escherichia coli IP76-24
[13] = test system: Aspergillus fumigatus IP1025-70
Nocardia asteroides = test system: Nocardia asteroides
[14] = test system: Pseudomonas aeruginosa CGMCC 1.50
Candida glabrata 090902 = test system: Candida glabrata 090902
[15] = test system: Enterococcus faecalis 981
[16] = test system: Pseudomonas aeruginosa ATCC 27853
[17] = test system: Candida albicans ATCC 2002
Shigella dysenteriae = test system: Shigella dysenteriae
[18] = test system: Klebsiella pneumoniae ATCC 700603
[19] = test system: Candida albicans ATCC 90028
Klebsiella pneumoniae = test system: Klebsiella pneumoniae
Staphylococcus aureus 10 = test system: Staphylococcus aureus 10
[20] = test system: Enterobacter cloacae ATCC 13047
Staphylococcus aureus 37 = test system: Staphylococcus aureus 37
[21] = test system: Enterococcus faecalis ATCC 29212
[22] = test system: Candida parapsilosis ATCC 22019
[23] = test system: Pseudomonas aeruginosa CMCCB 1010

MIC (Cryptococcus neoformans): 3.21 µM (≈ 6 µg/mL)
MIC (Bacillus subtilis): 3.21 µM (≈ 6 µg/mL)
MIC (Serratia sp.): 10.7 µM (≈ 20 µg/mL)
MIC (Escherichia coli): 5.35 µM (≈ 10 µg/mL)
MIC (Salmonella typhimurium): 5.35 µM (≈ 10 µg/mL)
MIC (Staphylococcus aureus): 10.7 µM (≈ 20 µg/mL)
MIC (Saccharomyces cerevisiae): 3.21 µM (≈ 6 µg/mL)
MIC (Pseudomonas putida): 5.35 µM (≈ 10 µg/mL)
MIC (Streptococcus mutans): 3.21 µM (≈ 6 µg/mL)
MIC (Candida albicans): 5.35 µM (≈ 10 µg/mL)
SMILES: CC(C)C[C@H](NC(=O)[C@H](CCCN=C(N)N)NC(=O)[C@H](C)NC(=O)[C@H](CCCN=C(N)N)NC(=O)[C@H](CC(C)C)NC(=O)[C@H](CO)NC(=O)[C@H](CCC(=O)O)NC(=O)CNC(=O)[C@H](CCCCN)NC(=O)[C@H](CC(C)C)NC(=O)[C@H](CCCN=C(N)N)NC(=O)[C@H](CO)NC(=O)[C@@H](NC(=O)[C@H](CCCCN)NC(=O)[C@@H](NC(=O)[C@@H](NC(=O)CN)C(C)C)C(C)C)C(C)C)C(=O)O [GVVKVSRLKGESLRARL]

MIC [1]: 100 µM (≈ 133 µg/mL)
MIC (Nocardia asteroides): ≥ 100 µM
MIC [14]: ≥ 400 µM
MIC (Candida glabrata 090902): ≥ 400 µM
MIC [15]: ≥ 200 µM
SMILES: CC[C@H](C)[C@H](NC(=O)[C@H](CC(C)C)NC(=O)CNC(=O)[C@@H](NC(=O)[C@@H](NC(=O)[C@@H](N)Cc1ccccc1)[C@@H](C)CC)[C@@H](C)O)C(=O)NCC(=O)NCC(=O)N[C@@H](CC(C)C)C(=O)N[C@@H](CCSC)C(=O)N[C@@H](CCCCN)C(=O)N[C@@H](C)C(=O)N[C@@H](CC(C)C)C(N)=O [FITGLIGGLMKAL]

The remaining lines, values behind:

SMILES: NCCCC[C@H](NC(=O)[C@H](Cc1ccccc1)NC(=O)[C@H](Cc1ccccc1)NC(=O)[C@H](CCCCN)NC(=O)[C@H](Cc1ccccc1)NC(=O)[C@H](Cc1ccccc1)NC(=O)[C@@H](N)CCCCN)C(=O)N[C@@H](Cc1ccccc1)C(=O)N[C@@H](Cc1ccccc1)C(=O)O [KFFKFFKFF]
MIC (Micrococcus luteus ML36): 7.78 µM (≈ 10 µg/mL)
MIC (Escherichia coli SC9251): 23.3 µM (≈ 30 µg/mL)
MIC (Escherichia coli IH3080): ≥ 77.8 µM
MIC (Escherichia coli SC9252): 23.3 µM (≈ 30 µg/mL)
MIC (Escherichia coli SC9253): 23.3 µM (≈ 30 µg/mL)
MIC (Escherichia coli SM101): 23.3 µM (≈ 30 µg/mL)

SMILES: CC[C@H](C)[C@H](NC(=O)[C@H](C)NC(=O)[C@H](CC(=O)O)NC(=O)[C@H](CC(C)C)NC(=O)CNC(=O)CNC(=O)[C@H](CCCCN)NC(=O)[C@H](C)NC(=O)[C@H](Cc1ccccc1)NC(=O)[C@H](CCCCN)NC(=O)[C@H](CCCCN)NC(=O)[C@H](CC(C)C)NC(=O)CNC(=O)CNC(=O)[C@H](CC(C)C)NC(=O)[C@@H](NC(=O)[C@@H](NC(=O)[C@H](CO)NC(=O)[C@H](Cc1c[nH]c2ccccc12)NC(=O)[C@@H](NC(=O)CN)C(C)C)[C@@H](C)O)[C@@H](C)CC)C(=O)N[C@H](C(=O)N[C@@H](CC(N)=O)C(=O)N1CCC[C@H]1C(=O)N[C@@H](CCCCN)C(=O)O)C(C)C [GVWSTILGGLKKFAKGGLDAIVNPK]
MIC [1]: 11.3 µM (≈ 29.1 µg/mL)
MIC [2]: 2.83 µM (≈ 7.27 µg/mL)
MIC (Micrococcus luteus): 0.5 µM (≈ 1.29 µg/mL)
MIC (Saccharomyces cerevisiae): 8 µM (≈ 20.6 µg/mL)
MIC [3]: 16 µM (≈ 41.1 µg/mL)

SMILES: CC[C@H](C)[C@H](NC(=O)CNC(=O)[C@H](CCCCN)NC(=O)[C@H](CC(C)C)NC(=O)[C@H](CCSC)NC(=O)[C@H](CC(N)=O)NC(=O)[C@H](CCCCN)NC(=O)[C@H](Cc1c[nH]c2ccccc12)NC(=O)[C@H](CC(C)C)NC(=O)[C@H](C)N)C(=O)NCC(=O)N[C@@H](CCCCN)C(=O)N[C@@H](CC(C)C)C(=O)N[C@@H](C)C(=O)NCC(N)=O [ALWKNMLKGIGKLAG]
MIC [4]: 3 µM (≈ 4.8 µg/mL)
MIC [5]: 30 µM (≈ 48 µg/mL)
MIC [6]: 20 µM (≈ 32 µg/mL)
MIC [7]: 3 µM (≈ 4.8 µg/mL)
MIC [8]: ≥ 150 µM
MIC [9]: 10 µM (≈ 16 µg/mL)
MIC [10]: ≥ 40 µM
MIC [11]: 3 µM (≈ 4.8 µg/mL)
MIC [12]: ≥ 150 µM
MIC (Escherichia coli IP76-24): 3 µM (≈ 4.8 µg/mL)
MIC [13]: 20 µM (≈ 32 µg/mL)

SMILES: CC[C@H](C)[C@H](N)C(=O)N[C@@H](CC(N)=O)C(=O)N[C@@H](CC(C)C)C(=O)N[C@@H](CCCCN)C(=O)N[C@@H](C)C(=O)N[C@H](C(=O)N[C@H](C(=O)N[C@@H](C)C(=O)N[C@@H](CC(C)C)C(=O)N[C@@H](C)C(=O)N[C@@H](CCCCN)C(=O)N[C@@H](CCCCN)C(=O)N[C@@H](CC(C)C)C(=O)N[C@@H](CC(C)C)C(=O)O)[C@@H](C)O)[C@@H](C)CC [INLKAITALAKKLL]
MIC [16]: 53 µM (≈ 80 µg/mL)
MIC [1]: 6.62 µM (≈ 10 µg/mL)
MIC [17]: 3.31 µM (≈ 5 µg/mL)
MIC (Shigella dysenteriae): 6.62 µM (≈ 10 µg/mL)
MIC [18]: 26.5 µM (≈ 40 µg/mL)
MIC [19]: 6.62 µM (≈ 10 µg/mL)
MIC (Klebsiella pneumoniae): 13.2 µM (≈ 20 µg/mL)
MIC (Staphylococcus aureus 10): 1.66 µM (≈ 2.5 µg/mL)
MIC [20]: 3.31 µM (≈ 5 µg/mL)
MIC (Staphylococcus aureus 37): 3.31 µM (≈ 5 µg/mL)
MIC [21]: 3.31 µM (≈ 5 µg/mL)
MIC [22]: 1.66 µM (≈ 2.5 µg/mL)
MIC [23]: 6.62 µM (≈ 10 µg/mL)
